A short description of data set [1]: Water solubility (in words). Type of data set: physicochemical.
Data set [2] is described as follows: CD spectroscopy, α-helicity by CONTIN-LL. The following applies: for helix %: CONTINLL from CD spectra, Avg of replicates Ⅰ-Ⅲ; for α-Helicity, helix % avg: CD spectra, CONTINLL, summary table, mean of n = 3. The data set is classed as physicochemical. The procedure:
CD spectra were measured using a J-810 spectropolarimeter (JASCO, Japan). Spectra were recorded from 250 nm to 190 nm wavelength using a 1 cm path-length cuvette. Scans were repeated five times and averaged. Molar ellipticity was calculated per amino acid residue. The concentrations of SNCP and p53pep were 0.2 mg/mL and 20 μM, respectively. All sample suspensions were incubated at least for 2 days at room temperature before CD measurement. To perform temperature-dependent CD experiments, the spectra were recorded at 10 °C interval over a temperature range of 25 to 75 °C, with 30 min incubation time to reach equilibrium at each temperature. The α-helicity of peptides was calculated by using the CONTIN-LL algorithms provided from the DICHROWEB server.

In data set [3] the target is T1, MDM2_1-118 (hMDM2 protein) (Homo sapiens, UniProt Q00987).
T1 construct: purchased SignalChem (Canada)
T1 sequence (Q00987 1-118): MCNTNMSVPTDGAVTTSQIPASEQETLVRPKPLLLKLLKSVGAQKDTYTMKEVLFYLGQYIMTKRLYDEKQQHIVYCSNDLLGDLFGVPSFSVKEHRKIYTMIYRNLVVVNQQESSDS
As to the kind of experiment: Fluorescence polarization binding affinity. The conditions noted are these: peptide 50 nM, PBS pH 7.4, 0.01% Tween20, 10 mM DTT, 2% DMSO, room temperature, N = 3, mean ± SD. The procedure:
Each of p53pep and st-p53pep (50 nM) were incubated with MDM2_1-118 with various concentrations in binding assay buffer (PBS pH 7.4 with 0.01% Tween20, 10 mM DTT, 2% DMSO) at room temperature. Binding affinity was measured by fluorescence polarization on a Biotek Synergy Neo2 multi-mode microplate reader. Kd values were determined by nonlinear regression analysis.

For data set [4], the system named is HepG2 cells. As to the kind of experiment: CCK-8 cell viability. The conditions noted are these: 24 h, 50. The data set is classed as cell-based, human. As to the method:
Human liver cancer cell line HepG2 were grown in DMEM containing 10% FBS and 1% penicillin/streptomycin at 37 °C in a humidified atmosphere of 5% CO2. HepG2 cells (1.2 × 10^5 cells/well) were seeded in a 4-well glass plate for 24 h. Then, SNCPs@st-p53pep (0.02 mg/mL) and st-p53pep alone (2 μM) were added to each well in a serum-free medium for 4 h. After incubation, the cells were carefully rinsed with PBS, and the medium was replaced with a serum-containing fresh medium. After the nucleus was stained with Hoechst 33342 staining kit by manufacturer’s protocol, bright field and fluorescence images were obtained by using a DeltaVision Elite Microscopy System (GE Healthcare, USA). To observe the distribution of SNCP8 and st-p53pep in cells, TAMRA-labeled SNCP8@FAM-labeled st-p53pep (0.25 mg/mL) was treated in the same manner instead of SNCP8@st-p53pep. And then, the Mander’s overlap coefficient (MOC) was calculated in the Image J program (ver. 1.52a) via the JACoP plugin to identify co-localization between fluorescence signals over time. […] The cell viability was determined using cell counting kit-8 (CCK-8) assay by monitoring absorbance at 450 and 670 nm wavelength measured using a microplate reader (Molecular Devices, Inc., USA). The EC50 values of SNCPs@st-p53pep were determined by the logistic curve-fitting method with Origin (OriginLab, USA).

For data set [5], the system named is proteinase K. As to the kind of experiment: in vitro. Type of data set: in vitro ADME. The following applies: isolated enzyme proteinase k. As to the method: (§1) To investigate whether SNCP8@st-p53pep could effectively suppress tumor growth in vivo, we evaluated the anti-tumor effect of SNCP8@st-p53pep using human liver cancer (HepG2) xenograft bearing mouse model. Mice were treated with SNCP8@st-p53pep and controls by intratumoral injection every three days and tumor volume changes were monitored for 14 days. […] Next, we monitored distribution of TAMRA-SNCP8 (red), FAM-st-p53pep (green), and TAMRA-SNCP8@FAM-st-p53pep in the tumor-bearing mouse overtime after intratumoral injection. As shown in Fig. 5b and Supplementary Fig. 20, green fluorescence signal in the tumor treated with TAMRA-SNCP8@FAM-st-p53pep slowly diminished during 72 h, while signal in tumor treated with FAM-st-p53pep alone quickly disappeared within 24 h. […] To compare the lifetime of st-p53pep in tumor more precisely, we calculated the half-life (t1/2) of green fluorescence decay for each sample by analyzing region of interest (ROI) on the basis of whole-body fluorescence image (Fig. 5c).
(§2) Supplementary Figure 19. The proteolytic degradation of p53pep. Semi-quantitative analysis of protease-mediated degradation of p53pep by using the matrix-assisted laser desorption ionization time-of-flight mass spectrometry ( MALDI-TOF MS).
(§3) (a) Mass spectrum of p53pep without SNCP8 (left) and with SNCP8 (right) over 12 h.
(§4) The cumulative remaining p53pep in short (b) and long (c) periods in different conditions: p53pep (circle) and SNCP8@p53pep (square). Rapid degradation of free p53pep within 1 min is observed while the degradation of p53pep inside the SNCP8 […]
(§5) proteinase K (N = 3, biologically independent samples; mean ± SD).
(§6) (1 picture or pasted object on this page, not shown here)

The target in data set [6] is proteinase K (Parengyodontium album, UniProt P06873). Kind of data set: in vitro. Type of data set: in vitro ADME. The procedure:
as §1, §2, §3, §4, §5, §6

In data set [7] the target is stapled p53 peptide prepared by click reaction (st-p53pep). As to the kind of experiment: fluorescence polarisation; 50 nM FAM-labelled peptide incubated with MDM2(1-118) at various concentrations; PBS pH 7.4 with 0.01% Tween20, 10 mM DTT, 2% DMSO; room temperature; Kd by nonlinear regression. In general terms: In fluorescence polarisation assays a small probe gives low polarisation when free and higher when bound to something large.

In data set [8] the target is synthetic p53 peptide (p53pep). The description is as above.
Data set [9] concerns the target MDM2(1-118), a part of the target protein possessing the p53pep binding site (UniProt Q00987).

Chain of MDM2(1-118), a part of the target protein possessing the p53pep binding site (from UniProt Q00987 1-118) (domain or fragment) (Q00987 1-118): as above
Chain of proteinase K (Parengyodontium album, UniProt P06873) (P06873 106-384, species assumed): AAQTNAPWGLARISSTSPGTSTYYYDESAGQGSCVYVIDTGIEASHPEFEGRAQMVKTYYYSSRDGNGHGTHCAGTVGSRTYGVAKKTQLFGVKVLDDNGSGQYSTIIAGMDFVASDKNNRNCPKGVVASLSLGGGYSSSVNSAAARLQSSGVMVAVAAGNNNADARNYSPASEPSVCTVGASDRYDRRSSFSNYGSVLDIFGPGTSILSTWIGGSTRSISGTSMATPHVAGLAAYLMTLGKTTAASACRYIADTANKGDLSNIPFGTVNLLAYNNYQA
Chain of MDM2(1-118), a part of the target protein possessing the p53pep binding site (UniProt Q00987) (Q00987 1-118): as the sequence (Q00987 1-118) above

A word on the Kd: it is the constant that tells how readily two partners part at equilibrium. One may read the fraction remaining as the share of the starting amount still present when the sample was taken. On to `C#CCCC(=O)NCCCC[C@@H](NC(=O)[C@H](Cc1ccccc1)NC(=O)[C@@H](NC(=O)[C@H](CCC(N)=O)NC(=O)[C@H](CCC(N)=O)NC(=O)[C@H](CO)NC(=O)[C@H](CCC(N)=O)NC(=O)CNC(=O)CNC(=O)c1ccc2c(c1)C(=O)OC21c2ccc(O)cc2Oc2cc(O)ccc21)[C@@H](C)O)C(=O)N[C@@H](CC(N)=O)C(=O)N[C@@H](CC(C)C)C(=O)N[C@@H](Cc1c[nH]c2ccccc12)C(=O)N[C@@H](CCCNC(=N)N)C(=O)N[C@@H](CC(C)C)C(=O)N[C@@H](CC(C)C)C(=O)N[C@@H](CCCN=[N+]=[N-])C(=O)N[C@@H](CCC(N)=O)C(=O)N[C@@H](CC(N)=O)C(N)=O` [p53pep], for which the “solubility in water (in words)” value in [1] was “insoluble in water”. The helix % in [2] (25C) was 39.4%; in data set [2] (35C), 35.9%; in data set [2] (45C), 37.5%; in [2] (55C) it was 36.5667%; in [2] (65C) it was 34.0667%; in [2] (75C) it was 35.9667%. Besides, the “α-Helicity, helix % avg” value is recorded as 39.4% in data set [2] (25 ℃), 35.9% in data set [2] (35 ℃) and 37.5% in data set [2] (45 ℃). The Kd in [3] came to 0.0806 ± 0.00233 µM. Further, in data set [4], the “cell viability at corresponding dose” value is on record as “more than 80%”. Besides, in data set [5], the amount remaining at 1 min is 16.9%. The same molecule registered an amount remaining at 0.05 h in data set [5] of 8.39%. Besides, the amount remaining at 5 min in [5] is 5.56%. Also, the amount remaining at 10 min in [5] is 3.21%. In data set [5], this molecule gave a fraction remaining at 0.5 h of 6.68%. The molecule also displayed a share remaining at 1 h in data set [5] of 9.04%. For the same molecule, the fraction remaining at 12 h in data set [5] is 3.85%. Also, the “time of degradation by proteinase K” value in data set [6] is given as not above 1 min.
Regarding “MDM2(1-118), a part of the target protein possessing the p53pep binding site (from UniProt Q00987 1-118) (domain or fragment)”, the figures for the Kd in data set [7] and in data set [8] were 0.0277 µM and 0.0806 µM, respectively.
synthetic p53 peptide (p53pep) registered a viability of HepG2 cells (CCK-8) at the corresponding dose of SNCP8@p53pep (unstapled peptide delivered in SNCP8) in [9] of more than 80%.

The record behind these values is article PMC9356039, “Multifunctional synthetic nano-chaperone for peptide folding and intracellular delivery” (Nature Communications, 2022).
